# Test results reported in patent US20060240494A1, “Biocidal molecules, macromolecular targets and methods of production and use” (priority 2000, published 2006).
# Residues, ends and D or L forms follow the SMILES beside them. *: point of attachment. 5FAM = O=C1OC2(c3ccc(O)cc3Oc3cc(O)ccc32)c2ccc(C(=O)*)cc21
# What was measured:
# Hsp70 = Hsp70 (Homo sapiens, UniProt P0DMV8); assay: Fluorescence polarization binding of fluorescein-labeled peptides to Hsp70; set-up: purchased; host or cells: E. coli; conditions: Hsp70 at both concentrations (4 μM and 2 μM); peptide 1 nM; blank about 62
# Text: (§1) All solid-phase assays that separate the bound form of the ligand from the free form are suspect. Therefore, in the next step, the binding of labeled peptides to the heat shock/chaperone proteins and to LPS was observed by fluorescence polarization.
# (§2) In one example, three fluorescein-labeled peptides were synthesized with the fluorescein label attached at the N-terminus of the peptide: fluorescein-K-pyrrhocoricin (N-F-pyrrhocoricin), fluorescein-K-drosocin (unglycosylated; N-F-drosocin), and fluorescein-K-apidaecin (N-F-apidaecin). A C-terminally labeled peptide was also made, i.e., pyrrhocoricin-K-fluorescein (C-F-pyrrhocoricin). The C-terminally labeled pyrrhocoricin peptide (C-F-pyrrhocoricin) was made to investigate the possibility of spatial separation of the active sites. From earlier experiments, it was clear that pyrrhocoricin and drosocin bind to the receptor(s) with their two terminal domains [Hoffmann, R. et al, (1999) Biochim. Biophys. Acta, 1426: 459-467; McManus, A. et al, (1999) Biochemistry, 38: 705-714].
# (§3) During fluorescence polarization, positive signals are detected only when the free rotation of the fluorescein attached to one of the interacting partners is slowed down due to binding to the other partner when this label is not exceedingly far from the site of interaction. […]
# GroES = biological target: T1, GroES (Escherichia coli, UniProt P0A6F9); assay: Fluorescence polarization binding of fluorescein-labeled peptides to GroES; conditions: GroES at both concentrations (4 μM and 2 μM); peptide 1 nM; blank about 62
# T1 construct: purchased; host or cells: E. coli
# Text: as §1, §2, §3
# [1] = biological target: E. coli DnaK aa513-551 (A-B helix fragment) (Escherichia coli, UniProt P0A6Y8); assay: Fluorescence polarization with DnaK A-B helix fragment; format: binding
# DnaK = DnaK (Escherichia coli, UniProt P0A6Y8); assay: Fluorescence polarization binding of fluorescein-labeled peptides to DnaK; set-up: purchased; host or cells: E. coli; species or system E. coli; conditions: for minipolarization value: peptide 1 nM, blank about 62
# Text: (§4) All solid-phase assays that separate the bound form of the ligand from the free form are suspect.
# (§5) In one example, three fluorescein-labeled peptides were synthesized with the fluorescein label attached at the N-terminus of the peptide: fluorescein-K-pyrrhocoricin (N-F-pyrrhocoricin), fluorescein-K-drosocin (unglycosylated; N-F-drosocin), and fluorescein-K-apidaecin (N-F-apidaecin). […] Biophys. Acta, 1426: 459-467; McManus, A. et al, (1999) Biochemistry, 38: 705-714].
# (§6) During fluorescence polarization, positive signals are detected only when the free rotation of the fluorescein attached to one of the interacting partners is slowed down due to binding to the other partner when this label is not exceedingly far from the site of interaction. If the label is placed too far from the binding site, the flexibility of peptide-like structures will resume free rotation of the fluorescein moiety, resulting in no polarization anisotropy, even if positive binding occurs. As a negative control fluorescein-labeled peptide, a fragment of the […] of human tubulin was used [Otvos, L., Jr. et al, (1998) Protein and Peptide Lett., 5: 207-213].
# The same heat shock proteins and LPS preparations were used as in the Western-blotting, except DnaJ was not studied. Ras was used as a negative control protein. The fluorescein-K-pyrrhocoricin—DnaK binding study was repeated with an additional DnaK preparation, purchased from another source. The labeled peptides were used in fixed 1 nM concentrations. […] The initial concentration of LPS was set to 0.5 mg/ml, and dilutions were made until 0.031 mg/ml.
# [2] = biological target: blocked E. coli DnaK fragment aa591-615 (Escherichia coli, UniProt P0A6Y8); format: binding; conditions: PBS; qualitative
# [3] = biological target: T2, S. aureus DnaK 554-585 (D-E helix fragment) (Staphylococcus aureus, UniProt P45554); assay: Fluorescence polarization with S. aureus DnaK D-E helix fragment; format: binding
# T2 sequence (P45554 554-585 limits assumed): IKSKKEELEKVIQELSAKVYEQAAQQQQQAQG
# GroEL = GroEL (Escherichia coli, UniProt P0A6F5); assay: Fluorescence polarization binding of fluorescein-labeled peptides to GroEL; set-up: purchased; host or cells: E. coli; species or system E. coli; conditions: peptide 1 nM, blank about 62
# Text: as §4, §5, §6
# The same heat shock proteins and LPS preparations were used as in the Western-blotting, except DnaJ was not studied. Ras was used as a negative control protein. […]
# Ras = assay: Fluorescence polarization binding of fluorescein-labeled peptides to Ras (negative control protein); conditions: Ras at both concentrations (4 μM and 2 μM); peptide 1 nM; blank about 62
# Text: as §1, §2, §3
# [4] = biological target: E. coli DnaK fragment aa397-439 (conventional peptide binding pocket) (Escherichia coli, UniProt P0A6Y8); assay: Fluorescence polarization with DnaK fragment aa397-439; conditions: PBS; qualitative
# [5] = biological target: E. coli DnaK fragment aa583-615 (D-E helix hinge) (Escherichia coli, UniProt P0A6Y8); assay: Fluorescence polarization with synthetic DnaK fragment aa583-615; format: binding; conditions: Tris HCl at pH 8.0; labeled peptide 1 nM
# Method: The binding of the synthetic DnaK fragments to their fluorescein-labeled pyrrhocoricin counterparts was also assessed in solution, by fluorescence polarization [Lundblad, J. R. et al, (1996) Mol. Endocrinol. 10: 607-612]. For these experiments, the unlabeled peptides were serially diluted in PBS (pH 7.4) or 0.1 M Tris-HCl (pH 8.0) containing 0.1 M ethylene-diamine-tetraacetic acid (EDTA) in 50 μL final volume in 6×50 mm disposable glass borosilicate tubes. The fluoresceinated peptides were added to each tube in a 50 μL aliquot to a final concentration of 1 nM and tubes were incubated at 37° C. for 5 minutes. The extent of fluorescence anisotropy was measured on a Beacon 2000 fluorescence polarization instrument (PanVera, Madison, Wis.) and calculated as millipolarization values. The filters used were 485 nm excitation and 535 nm emission with 3 nm band width. Non-linear curve fitting was done by using a dose-response logistical transition [y=a0+a1/(1+x/a2)^a^3] and the Levenberg-Marquardt Algorithm within the SlideWrite software package. The provided Kd value (a2 coefficient) was calculated by the program.
# To quantitatively characterize the pyrrhocoricin—D-E helix interaction, the complete binding curves were measured for E. coli DnaK fragments aa583-615 and aa588-615, both of SEQ ID NO: 10.
# GrpE = biological target: T3, GrpE (Escherichia coli, UniProt P09372); assay: Fluorescence polarization binding of fluorescein-labeled peptides to GrpE; conditions: GrpE at both concentrations (4 μM and 2 μM); peptide 1 nM; blank about 62
# T3 construct: purchased; host or cells: E. coli
# Text: as §1, §2, §3
# E. coli DnaK aa596-637 = E. coli DnaK aa596-637 (Escherichia coli, UniProt P0A6Y8); assay: Fluorescence polarization with DnaK extreme C-terminus fragment; format: binding; conditions: PBS; qualitative
# Hsp60 = biological target: T4, Hsp60 (Homo sapiens, UniProt P10809); assay: Fluorescence polarization binding of fluorescein-labeled peptides to Hsp60; conditions: peptide 1 nM, blank about 62
# T4 construct: purchased; host or cells: E. coli
# Text: as §1, §2, §3
# Chain of DnaK (P0A6Y8 whole entry): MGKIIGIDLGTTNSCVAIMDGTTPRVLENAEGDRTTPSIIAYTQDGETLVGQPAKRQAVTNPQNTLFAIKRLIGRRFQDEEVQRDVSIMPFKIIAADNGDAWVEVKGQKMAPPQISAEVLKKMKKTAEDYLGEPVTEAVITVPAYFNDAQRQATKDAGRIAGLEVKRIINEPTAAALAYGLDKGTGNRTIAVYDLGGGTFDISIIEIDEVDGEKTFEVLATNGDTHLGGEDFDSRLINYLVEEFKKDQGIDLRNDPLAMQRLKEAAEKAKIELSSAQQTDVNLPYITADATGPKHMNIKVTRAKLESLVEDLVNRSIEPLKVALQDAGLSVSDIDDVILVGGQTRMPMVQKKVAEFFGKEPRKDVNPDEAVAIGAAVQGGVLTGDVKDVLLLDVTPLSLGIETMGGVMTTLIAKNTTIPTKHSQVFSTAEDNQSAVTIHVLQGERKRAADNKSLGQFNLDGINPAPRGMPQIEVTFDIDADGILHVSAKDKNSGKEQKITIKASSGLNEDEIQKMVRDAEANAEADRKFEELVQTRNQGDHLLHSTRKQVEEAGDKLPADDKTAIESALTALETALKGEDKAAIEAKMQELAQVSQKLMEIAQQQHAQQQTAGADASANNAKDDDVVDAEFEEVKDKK
# Chain of GroEL (P0A6F5 2-548 limits assumed): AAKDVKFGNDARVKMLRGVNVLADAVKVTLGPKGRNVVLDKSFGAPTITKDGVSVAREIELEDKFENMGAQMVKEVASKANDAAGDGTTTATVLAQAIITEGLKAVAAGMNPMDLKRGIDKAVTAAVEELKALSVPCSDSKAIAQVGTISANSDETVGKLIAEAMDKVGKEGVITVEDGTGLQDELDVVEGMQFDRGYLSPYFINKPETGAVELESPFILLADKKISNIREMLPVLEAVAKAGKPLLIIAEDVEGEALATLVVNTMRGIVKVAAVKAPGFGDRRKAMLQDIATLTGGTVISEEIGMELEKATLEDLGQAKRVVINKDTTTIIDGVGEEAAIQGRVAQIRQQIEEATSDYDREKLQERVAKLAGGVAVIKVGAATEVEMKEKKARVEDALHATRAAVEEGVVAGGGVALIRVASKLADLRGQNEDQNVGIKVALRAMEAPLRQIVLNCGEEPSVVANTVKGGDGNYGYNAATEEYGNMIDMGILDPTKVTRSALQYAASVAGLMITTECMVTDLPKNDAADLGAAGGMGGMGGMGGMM
# Chain of E. coli DnaK aa513-551 (A-B helix fragment) (P0A6Y8 514-552 limits assumed): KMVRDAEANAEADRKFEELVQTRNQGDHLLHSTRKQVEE
# T4 sequence (P10809 27-573): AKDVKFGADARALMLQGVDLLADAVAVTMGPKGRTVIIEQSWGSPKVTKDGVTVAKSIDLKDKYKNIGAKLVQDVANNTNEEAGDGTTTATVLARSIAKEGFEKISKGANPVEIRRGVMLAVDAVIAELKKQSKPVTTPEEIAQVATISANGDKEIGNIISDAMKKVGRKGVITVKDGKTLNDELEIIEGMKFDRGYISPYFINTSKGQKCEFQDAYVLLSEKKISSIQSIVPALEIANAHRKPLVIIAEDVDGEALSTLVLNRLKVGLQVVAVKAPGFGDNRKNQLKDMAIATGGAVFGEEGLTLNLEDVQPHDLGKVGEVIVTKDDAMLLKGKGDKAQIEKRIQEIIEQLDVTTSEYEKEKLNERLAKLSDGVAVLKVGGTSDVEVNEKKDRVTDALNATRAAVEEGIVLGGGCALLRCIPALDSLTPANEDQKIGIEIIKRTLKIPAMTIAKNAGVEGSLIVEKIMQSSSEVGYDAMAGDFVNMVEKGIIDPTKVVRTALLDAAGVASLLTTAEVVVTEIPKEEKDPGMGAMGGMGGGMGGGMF
# Chain of E. coli DnaK aa596-637 (P0A6Y8 597-638): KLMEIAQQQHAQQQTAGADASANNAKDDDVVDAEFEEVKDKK
# Chain of E. coli DnaK fragment aa583-615 (D-E helix hinge) (P0A6Y8 584-616): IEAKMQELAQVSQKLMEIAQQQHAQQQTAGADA
# T3 sequence (P09372 whole entry): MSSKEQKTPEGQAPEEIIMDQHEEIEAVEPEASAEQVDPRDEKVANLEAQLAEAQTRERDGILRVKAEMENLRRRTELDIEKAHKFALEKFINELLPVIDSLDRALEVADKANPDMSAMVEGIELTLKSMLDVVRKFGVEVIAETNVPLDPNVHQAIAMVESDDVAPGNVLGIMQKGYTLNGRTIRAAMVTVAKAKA
# Chain of Hsp70 (P0DMV8 whole entry): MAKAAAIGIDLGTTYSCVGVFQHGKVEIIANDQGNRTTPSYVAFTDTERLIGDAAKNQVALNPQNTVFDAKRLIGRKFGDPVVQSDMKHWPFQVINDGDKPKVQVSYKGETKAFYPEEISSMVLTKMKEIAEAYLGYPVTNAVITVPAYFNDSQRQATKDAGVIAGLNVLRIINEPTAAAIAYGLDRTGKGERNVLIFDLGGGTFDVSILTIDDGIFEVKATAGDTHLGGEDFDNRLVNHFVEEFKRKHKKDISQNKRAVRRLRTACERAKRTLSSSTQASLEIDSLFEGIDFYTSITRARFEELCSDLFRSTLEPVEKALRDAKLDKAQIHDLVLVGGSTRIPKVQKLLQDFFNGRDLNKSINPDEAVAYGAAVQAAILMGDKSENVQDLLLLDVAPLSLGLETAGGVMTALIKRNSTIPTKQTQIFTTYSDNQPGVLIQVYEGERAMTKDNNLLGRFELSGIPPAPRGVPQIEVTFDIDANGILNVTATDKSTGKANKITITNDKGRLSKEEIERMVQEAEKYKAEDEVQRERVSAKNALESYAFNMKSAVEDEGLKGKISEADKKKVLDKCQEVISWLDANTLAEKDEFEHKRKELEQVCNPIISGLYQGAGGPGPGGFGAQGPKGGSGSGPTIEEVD
# Chain of blocked E. coli DnaK fragment aa591-615 (P0A6Y8 592-616 limits assumed): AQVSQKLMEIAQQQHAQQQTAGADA
# Chain of E. coli DnaK fragment aa397-439 (conventional peptide binding pocket) (P0A6Y8 397-439): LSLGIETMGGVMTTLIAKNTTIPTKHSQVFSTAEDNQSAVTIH
# T1 sequence (P0A6F9 whole entry): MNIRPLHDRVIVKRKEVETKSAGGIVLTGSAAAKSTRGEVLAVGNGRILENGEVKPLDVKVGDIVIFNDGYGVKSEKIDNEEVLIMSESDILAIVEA
smiles,measurement,setting,value
CC[C@H](C)[C@H](NC(=O)[C@@H]1CCCN1C(=O)[C@H](CCCNC(=N)N)NC(=O)[C@@H]1CCCN1C(=O)[C@@H]1CCCN1C(=O)[C@@H](NC(=O)[C@@H]1CCCN1C(=O)[C@H](CCCNC(=N)N)NC(=O)[C@@H]1CCCN1C(=O)[C@H](CC(C)C)NC(=O)[C@H](Cc1ccc(O)cc1)NC(=O)[C@H](CO)NC(=O)CNC(=O)[C@H](CCCCN)NC(=O)[C@H](CC(=O)O)NC(=O)[C@@H](NC(=O)[C@H](CCCCN)NC(=O)c1ccc2c(c1)C(=O)OC21c2ccc(O)cc2Oc2cc(O)ccc21)C(C)C)[C@@H](C)O)C(=O)N[C@@H](Cc1ccc(O)cc1)C(=O)N[C@@H](CC(N)=O)C(=O)N[C@@H](CCCNC(=N)N)C(=O)N[C@@H](CC(N)=O)C(=O)O [N—F-pyrrhocoricin] (5FAM-KVDKGSYLPRPTPPRPIYNRN-OH; C-terminus assumed),minipolarization value,Hsp70,under 62
same,minipolarization value,GroES,under 62
same,binding to E. coli A-B helix fragment,"[1]; PBS, qualitative",No interaction above the level of the negative control
same,binding to E. coli A-B helix fragment,[1]; Tris HCl at pH 8.0,did not bind
same,millipolarization values higher over the background,DnaK; 1 nM peptide bound to DnaK,50%
same,minipolarization value,DnaK; 2 μM DnaK,about 95
same,minipolarization value,DnaK; 4 μM DnaK,about 100
same,binding to blocked E. coli DnaK fragment aa591-615,[2],bound strongly
same,binding to D-E helix fragment of S. aureus DnaK,"[3]; PBS, qualitative",No interaction above the level of the negative control
same,binding to S. aureus D-E helix fragment,[3]; Tris HCl at pH 8.0,did not bind
same,minipolarization value,GroEL; 2 μM Gro EL,about 85
same,minipolarization value,GroEL; 4 μM Gro EL,over 100
same,minipolarization value,Ras,under 62
same,binding to fragment aa397-439,[4],weakly
same,binding to E. coli D-E helix hinge region aa583-615,[5],concentration-dependent binding
same,minipolarization value,GrpE,under 62
same,binding to E. coli extreme C-terminus fragment,E. coli DnaK aa596-637,No interaction above the level of the negative control
same,minipolarization value,Hsp60; 2 μM Hsp60,about 62
same,minipolarization value,Hsp60; 4 μM Hsp60,about 90
